A short description of this series: Sink condition: solubility of API in DI water and SGF. Type of series: physicochemical. The following applies: for solubility: thermodynamic from solid, read-out: Final Concentration. As to the method: • 1. 5 mg of API was placed into a glass vial. • 2. Added 0.2 mL of diluent (DI water and SGF) into the vial, then sonicate and vortex to dissolve the API. • 3. If the solution is not clear after 5 minutes, add additional 0.2 mL of diluent into the vial, then sonicate and vortex to dissolve the API. • 4. Repeat step 4 till all API is dissolved. • 5. Calculate the final concentration of API and the maximum dissolvable dose used in dissolution test.

Where two headings read alike, the source gives them in different places.

In the case of `CC(C)c1ccc(N(C)c2ccc3c(c2)OCC[C@H]3CNc2cnccc2C(=O)O)cc1` [Compound 1, 3-({[(4R)-7-{methyl[4-(propan-2-yl)phenyl]amino}-3,4-dihydro-2H-1-benzopyran-4-yl]methyl}amino)pyridine-4-carboxylic acid], the “Maximum dissolvable dose used in dissolution test” value is recorded as 717 mg (diluent DI water) and 617 mg (diluent SGF). The solubility is not below 3700 µg/mL (simulated gastric fluid, diluent SGF) and not below 4300 µg/mL (diluent DI water).

Values taken from US20250134874A1, “PHARMACEUTICAL FORMULATIONS COMPRISING 3-({[(4R)-7-{METHYL[4-(PROPAN-2-YL)PHENYL]AMINO}-3,4-DIHYDRO-2H-1-BENZOPYRAN-4-YL]METHYL}AMINO)PYRIDINE-4-CARBOXYLIC ACID” (TACHYON THERAPEUTICS, INC., priority 2021, published 2025).
